Test: xn = mol fraction of the nth substance listed
Conditions: 100 kPa

CC[n+]1ccn(C)c1.N#C[N-]C#N + CCCCO showed a speed of sound (298.15 K, x1 = 0.1015) of 1316 m/s, a viscosity (298.15 K, x1 = 0.1015) of 2.73 mPa·s and a speed of sound (298.15 K, x1 = 0.2007) of 1385 m/s. The viscosity (298.15 K, x1 = 0.2007) was 2.85 mPa·s, the speed of sound (298.15 K, x1 = 0.4008) was 1515 m/s and the viscosity (298.15 K, x1 = 0.4008) was 3.54 mPa·s. For the same compound, the speed of sound (298.15 K, x1 = 0.5021) was 1575 m/s, the viscosity (298.15 K, x1 = 0.5021) was 4.21 mPa·s and the speed of sound (298.15 K, x1 = 0.6014) was 1629 m/s. It also gave a viscosity (298.15 K, x1 = 0.6014) of 5.1 mPa·s, a speed of sound (298.15 K, x1 = 0.7012) of 1685 m/s and a viscosity (298.15 K, x1 = 0.7012) of 6.4 mPa·s. The speed of sound (298.15 K, x1 = 0.8016) was 1725 m/s, the viscosity (298.15 K, x1 = 0.8016) was 7.9 mPa·s and the speed of sound (298.15 K, x1 = 0.9012) was 1763 m/s. For the same compound, the viscosity (298.15 K, x1 = 0.9012) was 10 mPa·s, the speed of sound (298.15 K, x1 = 1) was 1787 m/s and the viscosity (298.15 K, x1 = 1) was 13.1 mPa·s. The speed of sound (303.15 K, x1 = 0.1015) was 1300 m/s, the viscosity (303.15 K, x1 = 0.1015) was 2.36 mPa·s and the speed of sound (303.15 K, x1 = 0.2007) was 1369 m/s. For the same compound, the viscosity (303.15 K, x1 = 0.2007) was 2.41 mPa·s, the speed of sound (303.15 K, x1 = 0.3006) was 1435 m/s and the viscosity (303.15 K, x1 = 0.3006) was 2.63 mPa·s. It also gave a speed of sound (303.15 K, x1 = 0.4008) of 1499 m/s, a viscosity (303.15 K, x1 = 0.4008) of 2.99 mPa·s and a speed of sound (303.15 K, x1 = 0.5021) of 1559 m/s. The viscosity (303.15 K, x1 = 0.5021) was 3.55 mPa·s, the speed of sound (303.15 K, x1 = 0.6014) was 1613 m/s and the viscosity (303.15 K, x1 = 0.6014) was 4.26 mPa·s. It also gave a speed of sound (303.15 K, x1 = 0.7012) of 1669 m/s, a viscosity (303.15 K, x1 = 0.7012) of 5.2 mPa·s and a speed of sound (303.15 K, x1 = 0.8016) of 1709 m/s. The viscosity (303.15 K, x1 = 0.8016) was 6.6 mPa·s, the speed of sound (303.15 K, x1 = 1) was 1775 m/s and the viscosity (303.15 K, x1 = 1) was 11.8 mPa·s. The speed of sound (308.15 K, x1 = 0.1015) was 1283 m/s, the viscosity (308.15 K, x1 = 0.1015) was 2.11 mPa·s and the speed of sound (308.15 K, x1 = 0.2007) was 1352 m/s. It also gave a viscosity (308.15 K, x1 = 0.2007) of 2.17 mPa·s, a speed of sound (308.15 K, x1 = 0.5021) of 1542 m/s and a viscosity (308.15 K, x1 = 0.5021) of 2.86 mPa·s. It also gave a speed of sound (308.15 K, x1 = 0.6014) of 1596 m/s, a viscosity (308.15 K, x1 = 0.6014) of 3.47 mPa·s and a speed of sound (308.15 K, x1 = 0.9012) of 1730 m/s. The viscosity (308.15 K, x1 = 0.9012) was 7.3 mPa·s, the speed of sound (308.15 K, x1 = 1) was 1763 m/s and the viscosity (308.15 K, x1 = 1) was 10.9 mPa·s. The speed of sound (313.15 K, x1 = 0.1015) was 1266 m/s, the viscosity (313.15 K, x1 = 0.1015) was 1.91 mPa·s and the speed of sound (313.15 K, x1 = 0.4008) was 1466 m/s. For the same compound, the viscosity (313.15 K, x1 = 0.4008) was 2.16 mPa·s, the speed of sound (313.15 K, x1 = 0.5021) was 1525 m/s and the viscosity (313.15 K, x1 = 0.5021) was 2.38 mPa·s. The speed of sound (313.15 K, x1 = 0.6014) was 1580 m/s, the viscosity (313.15 K, x1 = 0.6014) was 2.89 mPa·s and the speed of sound (313.15 K, x1 = 0.7012) was 1636 m/s. For the same compound, the viscosity (313.15 K, x1 = 0.7012) was 3.58 mPa·s, the speed of sound (313.15 K, x1 = 0.8016) was 1676 m/s and the viscosity (313.15 K, x1 = 0.8016) was 4.42 mPa·s. It also gave a speed of sound (313.15 K, x1 = 0.9012) of 1713 m/s, a viscosity (313.15 K, x1 = 0.9012) of 6 mPa·s and a speed of sound (313.15 K, x1 = 1) of 1751 m/s. The viscosity (313.15 K, x1 = 1) was 9 mPa·s, the speed of sound (318.15 K, x1 = 0.1015) was 1250 m/s and the viscosity (318.15 K, x1 = 0.1015) was 1.71 mPa·s. It also gave a speed of sound (318.15 K, x1 = 0.2007) of 1319 m/s, a viscosity (318.15 K, x1 = 0.2007) of 1.79 mPa·s and a speed of sound (318.15 K, x1 = 0.3006) of 1385 m/s. The viscosity (318.15 K, x1 = 0.3006) was 1.86 mPa·s, the speed of sound (318.15 K, x1 = 0.4008) was 1449 m/s and the viscosity (318.15 K, x1 = 0.4008) was 1.93 mPa·s. The speed of sound (318.15 K, x1 = 0.5021) was 1509 m/s, the viscosity (318.15 K, x1 = 0.5021) was 2.07 mPa·s and the speed of sound (318.15 K, x1 = 0.7012) was 1619 m/s. For the same compound, the viscosity (318.15 K, x1 = 0.7012) was 2.91 mPa·s, the speed of sound (318.15 K, x1 = 0.8016) was 1659 m/s and the viscosity (318.15 K, x1 = 0.8016) was 3.61 mPa·s. The speed of sound (318.15 K, x1 = 0.9012) was 1697 m/s, the viscosity (318.15 K, x1 = 0.9012) was 5 mPa·s and the speed of sound (318.15 K, x1 = 1) was 1739 m/s. It also gave a viscosity (318.15 K, x1 = 1) of 8.1 mPa·s, a speed of sound (323.15 K, x1 = 0.1015) of 1233 m/s and a viscosity (323.15 K, x1 = 0.1015) of 1.52 mPa·s. For the same compound, the speed of sound (323.15 K, x1 = 0.3006) was 1369 m/s, the viscosity (323.15 K, x1 = 0.3006) was 1.63 mPa·s and the speed of sound (323.15 K, x1 = 0.5021) was 1492 m/s. For the same compound, the viscosity (323.15 K, x1 = 0.5021) was 1.84 mPa·s, the speed of sound (323.15 K, x1 = 0.6014) was 1547 m/s and the viscosity (323.15 K, x1 = 0.6014) was 1.99 mPa·s. The speed of sound (323.15 K, x1 = 0.7012) was 1603 m/s, the viscosity (323.15 K, x1 = 0.7012) was 2.43 mPa·s and the speed of sound (323.15 K, x1 = 0.8016) was 1643 m/s. For the same compound, the viscosity (323.15 K, x1 = 0.8016) was 3.03 mPa·s, the speed of sound (323.15 K, x1 = 0.9012) was 1680 m/s and the viscosity (323.15 K, x1 = 0.9012) was 4.01 mPa·s. For the same compound, the speed of sound (323.15 K, x1 = 1) was 1727 m/s and the viscosity (323.15 K, x1 = 1) was 7.3 mPa·s.
CCCCO + CC[n+]1ccn(C)c1.N#C[N-]C#N gave a speed of sound (298.15 K, x2 = 0) of 1241 m/s, a viscosity (298.15 K, x2 = 0) of 2.69 mPa·s and a speed of sound (303.15 K, x2 = 0) of 1224 m/s. The viscosity (303.15 K, x2 = 0) was 2.41 mPa·s, the speed of sound (308.15 K, x2 = 0) was 1207 m/s and the viscosity (308.15 K, x2 = 0) was 2.17 mPa·s. The speed of sound (313.15 K, x2 = 0) was 1191 m/s, the viscosity (313.15 K, x2 = 0) was 1.91 mPa·s and the speed of sound (318.15 K, x2 = 0) was 1174 m/s. The viscosity (318.15 K, x2 = 0) was 1.71 mPa·s, the speed of sound (323.15 K, x2 = 0) was 1158 m/s and the viscosity (323.15 K, x2 = 0) was 1.57 mPa·s.
